Molecular target: T1, IKKε (Homo sapiens, UniProt Q14164)
T1 construct: His-tag; made in house; host or cells: Sf9 insect cells
T1 sequence (Q14164 1-716): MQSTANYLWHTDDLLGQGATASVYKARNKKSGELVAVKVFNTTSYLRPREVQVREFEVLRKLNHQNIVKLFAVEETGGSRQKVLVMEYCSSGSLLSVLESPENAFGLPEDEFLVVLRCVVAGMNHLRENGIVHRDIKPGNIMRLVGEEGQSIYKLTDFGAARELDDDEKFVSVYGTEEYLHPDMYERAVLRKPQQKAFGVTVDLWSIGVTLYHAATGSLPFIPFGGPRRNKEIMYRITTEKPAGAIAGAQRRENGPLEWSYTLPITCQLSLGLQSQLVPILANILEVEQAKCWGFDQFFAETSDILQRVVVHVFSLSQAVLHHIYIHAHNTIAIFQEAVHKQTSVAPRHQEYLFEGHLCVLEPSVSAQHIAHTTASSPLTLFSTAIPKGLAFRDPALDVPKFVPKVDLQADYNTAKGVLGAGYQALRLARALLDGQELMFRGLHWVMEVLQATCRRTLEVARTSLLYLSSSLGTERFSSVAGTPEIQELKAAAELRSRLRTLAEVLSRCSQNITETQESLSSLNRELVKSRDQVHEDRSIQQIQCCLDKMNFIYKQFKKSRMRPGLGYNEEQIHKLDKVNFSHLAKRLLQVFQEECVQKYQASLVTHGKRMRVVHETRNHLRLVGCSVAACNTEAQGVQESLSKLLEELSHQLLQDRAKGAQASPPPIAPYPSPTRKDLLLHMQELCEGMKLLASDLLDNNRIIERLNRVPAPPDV
Assay: In-vitro IKKε kinase assay ([γ33]ATP filter-plate)
Type: biochemical
Conditions: text bins; read-out: IC50 for inhibition of the kinase activity of IKKε
Method in brief: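 His-tagged IKKε and TBK1 from Sf9 cells were assayed with myelin basic protein or casein and [γ33]ATP at 2×Km ATP (32 μM for IKKε, 60 μM for TBK1). Enzyme was 0.1 or 0.015 μg/ml for IKKε and 0.1 or 0.02 μg/ml for TBK1 (normal/sensitized). Reactions ran 30-45 min, were filter-captured, scintillation-counted, and normalized to DMSO after background subtraction.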

Row | Compound | IC50 [nM]
1 | COC1CN(C(C)c2ccc(Nc3nccc(-c4ccc(O[C@@H]5CCN(C(=O)CO)C5)c(C#N)c4)n3)cc2)C1 (some centres unmarked) [compound 602] | 5 to 50
2 | N#Cc1cc(-c2ccnc(Nc3ccc(C#Cc4cccnc4)cc3)n2)ccc1OC1CCOCC1 [compound 605, 5-(2-{[4-(Pyridin-3-ylethynyl)phenyl]amino}pyrimidin-4-yl)-2-(tetrahydro-2H-pyran-4-yloxy)benzonitrile] | 5 to 50
3 | N#Cc1cc(-c2ccnc(Nc3cccc(NC(=O)NCCO)c3)n2)ccc1OC1CCOCC1 [compound 622, 1-[3-({4-[3-Cyano-4-(tetrahydro-2H-pyran-4-yloxy)phenyl]pyrimidin-2-yl}amino)phenyl]-3-(2-hydroxyethyl)urea] | < 5
4 | N#Cc1cc(-c2ccnc(Nc3ccc(N4CCOCC4)cc3)n2)ccc1O[C@H]1CCN(C(=O)CO)C1 [compound 623, 2-{[(3S)-1-(Hydroxyacetyl)pyrrolidin-3-yl]oxy}-5-(2-{[4-(morpholin-4-yl)phenyl]amino}pyrimidin-4-yl)benzonitrile] | 5 to 50
5 | CC(=O)NS(=O)(=O)c1ccc(Nc2nccc(-c3ccc(OC4CCOCC4)c(C#N)c3)n2)cc1 [compound 630] | < 5
6 | Cc1ccnc(NS(=O)(=O)c2ccc(Nc3nccc(-c4ccc(OC5CCOCC5)c(C#N)c4)n3)cc2)n1 [compound 635, 4-({4-[3-Cyano-4-(tetrahydro-2H-pyran-4-yloxy)phenyl]pyrimidin-2-yl}amino)-N-(4-methylpyrimidin-2-yl)benzene-sulfonamide] | < 5
7 | N#Cc1cc(-c2ccnc(Nc3ccc(CN4CCN(CCO)CC4)cc3)n2)ccc1O[C@@H]1CCN(C(=O)CO)C1 [compound 636, 2-{[(3R)-1-(Hydroxyacetyl)pyrrolidin-3-yl]oxy}-5-{2-[(4-{[4-(2-hydroxyethyl)piperazin-1-yl]methyl}phenyl)amino]pyrimidin-4-yl}benzonitrile] | < 5
8 | COC1CN(c2cccc(Nc3nccc(-c4ccc(O[C@@H]5CCN(C(=O)CO)C5)c(C#N)c4)n3)c2)C1 [compound 639] | < 5
9 | N#Cc1cc(-c2ccnc(Nc3cccc(F)c3)n2)ccc1O[C@@H]1CCN(C(=O)CO)C1 [compound 641, 5-{2-[(3-Fluorophenyl)amino]pyrimidin-4-yl}-2-{[(3R)-1-(hydroxyacetyl)pyrrolidin-3-yl]oxy}benzonitrile] | 5 to 50

Now from value to compound:

Row | IC50 [nM] | Compound
10 | < 5 | N#Cc1cc(-c2ccnc(Nc3cccc(NC(=O)N4CC(O)C4)c3)n2)ccc1OC1CCOCC1 [compound 598, N-[3-({4-[3-Cyano-4-(tetrahydro-2H-pyran-4-yloxy)phenyl]pyrimidin-2-yl}amino)phenyl]-3-hydroxyazetidin-1-carboxamide]
11 | < 5 | N#Cc1cc(-c2ccnc(Nc3cccc(N4CCN(CCO)CC4)c3)n2)ccc1O[C@@H]1CCN(C(=O)CO)C1 [compound 604, 2-{[(3R)-1-(Hydroxyacetyl)pyrrolidin-3-yl]oxy}-5-[2-({3-[4-(2-hydroxyethyl)piperazin-1-yl]phenyl}amino)pyrimidin-4-yl]benzonitrile]
12 | < 5 | N#Cc1cc(-c2ccnc(Nc3ccc(-c4ccncc4)cc3)n2)ccc1OC1CCOCC1 [compound 610, 5-(2-{[4-(Pyridin-4-yl)phenyl]amino}pyrimidin-4-yl)-2-(tetrahydro-2H-pyran-4-yloxy)benzonitrile]
13 | < 5 | N#Cc1cc(-c2ccnc(Nc3ccc(CN4CC(O)C4)cc3)n2)ccc1O[C@@H]1CCN(C(=O)CO)C1 [compound 615, 2-{[(3R)-1-(Hydroxyacetyl)pyrrolidin-3-yl]oxy}-5-[2-({4-[(3-hydroxyazetidin-1-yl)methyl]phenyl}amino)pyrimidin-4-yl]benzonitrile]
14 | < 5 | COc1cc(Nc2nccc(-c3ccc(OCC4CC4)c(C#N)c3)n2)ccc1C(=O)N1CC(OC)C1 [compound 621, 2-(Cyclopropylmethoxy)-5-[2-({3-methoxy-4-[(3-methoxyazetidin-1-yl)carbonyl]phenyl}amino)pyrimidin-4-yl]benzonitrile]

Source: US20150352108A1, “AMINO-PYRIMIDINE COMPOUNDS AS INHIBITORS OF TBK1 AND/OR IKK EPSILON” (Alzheimer's Institute of America, priority 2009, published 2015)
